Experimental data reported in PubChem BioAssay (NCI).
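A five-concentration, 48-hour dose response in 96-well plates underlies each endpoint, interpolated linearly between surrounding concentrations. GI50 is the concentration that inhibits growth by half. At the TGI there is no net growth.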

Columns and labels:
Experiment in all cases: growth of human tumour cells (NCI), 48 h
786-0 renal = system: 786-0 renal
A549 NSCLC = system: A549 NSCLC
DU-145 prostate = system: DU-145 prostate
HCC-2998 colon = system: HCC-2998 colon
HT29 colon = system: HT29 colon
M14 melanoma = system: M14 melanoma
MOLT-4 leukemia = system: MOLT-4 leukemia
OVCAR-3 ovarian = system: OVCAR-3 ovarian
SNB-75 CNS = system: SNB-75 CNS
UO-31 renal = system: UO-31 renal

Structure (SMILES)	GI50 (786-0 renal)	TGI (786-0 renal)	GI50 (A549 NSCLC)	TGI (A549 NSCLC)	GI50 (DU-145 prostate)	TGI (DU-145 prostate)	TGI (HCC-2998 colon)	GI50 (HT29 colon)	TGI (HT29 colon)	GI50 (M14 melanoma)	TGI (M14 melanoma)	GI50 (MOLT-4 leukemia)	TGI (MOLT-4 leukemia)	GI50 (OVCAR-3 ovarian)	TGI (OVCAR-3 ovarian)	GI50 (SNB-75 CNS)	TGI (SNB-75 CNS)	GI50 (UO-31 renal)	TGI (UO-31 renal)	GI50 (HCC-2998 colon)
c1cc(N2CCN(c3ccc(C4=NCCCN4)cc3)CC2)ccc1C1=NCCCN1	> 100 µM	> 100 µM	> 80.6 µM	> 100 µM	> 66.6 µM	> 100 µM	> 45.2 µM	> 53.2 µM	> 100 µM	> 100 µM	> 100 µM	19.4 µM	> 100 µM	> 32.2 µM	> 100 µM	> 89.4 µM	> 100 µM	> 100 µM	> 100 µM	
Cc1[nH]c(-c2cc(N)ccc2Cl)c2c1C(=O)CCCC2	3.24 µM	> 100 µM	7.91 µM	> 100 µM	13.1 µM	> 100 µM	16.5 µM	2.7 µM	> 100 µM	4.37 µM	> 100 µM	8.32 µM	> 100 µM	3.62 µM	32.5 µM	0.183 µM	5.2 µM	0.477 µM	15.1 µM	3.39 µM
C[n+]1c2ccccc2nc2c(N)cc(N)cc21	5.43 µM	> 100 µM	14.1 µM	> 100 µM	16 µM	> 100 µM	93.2 µM	15.3 µM	> 100 µM	19.1 µM	76.3 µM	3 µM	22.6 µM	3.69 µM	22.8 µM	5.2 µM	18.7 µM	26.2 µM	> 100 µM	12.6 µM
CN=C1OC2(c3ccccc3)C3=C(OC(=NC)N2C)C(=O)OC3(c2ccccc2)N1C (stereo not given)		> 100 µM		> 100 µM		> 100 µM	> 100 µM		> 100 µM		> 100 µM		> 100 µM		> 100 µM		> 100 µM			
CC(CO)(Nc1ccc([N+](=O)[O-])cc1[N+](=O)[O-])C(=O)O (stereo not given)		> 100 µM		> 100 µM		48.9 µM	43.6 µM		30.4 µM		> 100 µM				42 µM				37.4 µM	
CC(C)C[C@H](NC(=O)CCn1ccc2ccccc2c1=O)B(O)O	4.76 µM	> 100 µM	8.41 µM	> 100 µM	9.13 µM	> 100 µM	21.3 µM	3.68 µM	48.7 µM	4.23 µM	> 100 µM	1.28 µM	5.94 µM	1.97 µM	5.66 µM	2.94 µM	15.9 µM	3.92 µM	35.3 µM	6.08 µM
COc1cc(/C=C/c2ccc3c(Br)cc(Br)c(O)c3n2)ccc1O	1.69 µM	6.93 µM	1.21 µM	12.9 µM	2.41 µM	17.6 µM		3.86 µM	12.8 µM	1.61 µM	10.6 µM	0.606 µM	7.04 µM	1.66 µM	9.12 µM	2.5 µM	10.1 µM	1.28 µM	12.4 µM	
CC1C=CC(OC(=O)C(C)(O)CCC(O)(C(=O)OC2CC(O)C(C(C)C)CC2(C)O)C(C)C)(C(C)C)CC1 (stereo not given)	0.681 µM	1.37 µM	0.567 µM	1.39 µM	0.272 µM	0.608 µM	8.91 µM	0.599 µM	1.56 µM	0.745 µM	1.81 µM	0.193 µM	0.861 µM	0.188 µM	0.409 µM	0.542 µM	1.79 µM	0.329 µM	1.02 µM	2.7 µM
N#CCCNc1nonc1-c1nc2ccccc2n1CC(=O)c1ccc(NC(=O)[C@@H](N)CCCCN)cc1	0.0557 µM	> 100 µM	0.0463 µM	> 100 µM	0.0323 µM	0.0994 µM	> 92.2 µM	0.0326 µM	> 33.3 µM	0.0199 µM	0.0685 µM	0.0451 µM	> 100 µM	0.0235 µM	0.0542 µM	0.0106 µM	> 100 µM	0.282 µM	> 100 µM	0.0308 µM
Cc1cc(C)c(C2CNCc3cc4c(cc32)CNCC4c2c(C)cc(C)cc2C)c(C)c1 (stereo not given)	2.34 µg/mL	5.26 µg/mL	4.53 µg/mL	15.8 µg/mL	7.21 µg/mL	19.8 µg/mL	3.85 µg/mL	2.75 µg/mL	8.35 µg/mL	1.83 µg/mL	3.28 µg/mL	2.95 µg/mL	8.55 µg/mL	1.91 µg/mL	4.27 µg/mL	0.526 µg/mL	1.92 µg/mL	2.04 µg/mL	5.56 µg/mL	1.82 µg/mL
CCC(=O)Nc1ccc(N2C(=O)/C(=C/c3ccc(OC)cc3)N=C2c2ccccc2)cc1	16.5 µM	> 50 µM	6.27 µM	27 µM	10.4 µM	> 50 µM		5.91 µM	> 50 µM	8.6 µM	43.3 µM	1.06 µM	> 50 µM	> 50 µM	> 50 µM	6.86 µM	> 50 µM	30 µM	> 50 µM	
COc1cc(C(=O)c2cc(C)c3[nH]c4ccc(O)cc4c3c2C)cc(OC)c1OC	< 0.0184 µM	> 22.2 µM	0.0191 µM	> 100 µM	0.0351 µM	> 26.5 µM	> 37.9 µM	0.0276 µM		0.0185 µM	> 100 µM	0.0424 µM	> 100 µM	< 0.01 µM	2.17 µM	< 0.01 µM	8.71 µM	0.269 µM	> 100 µM	0.03 µM
O=C(O)c1ccccc1NC(=S)c1ccccc1		> 100 µM		> 100 µM		> 100 µM	0.0159 µM		> 100 µM		> 100 µM		> 100 µM		> 100 µM				> 100 µM	
